Experimental data: PubChem BioAssay AID1963444 (Molecular Pharmacology Branch, DTP, NCI, 2024)

Test system: HSSY-II complex spheroid growth, percent test/control
Assay: Anticancer human tumor HSSY-II cell line growth inhibition [Asc];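 note: spheroids exposed to drug for 7 days before reading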
Conditions: for IC50: curve of first compound; for viability, T/C: stronger effect = lower value
In short: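 Stromal components (HUVEC and hMSC) are co-assembled with the cancer cells into multicellular spheroids. Drugs are then added singly or paired, at concentrations falling by half-log increments from a clinically achievable maximum, capped at 10 microM without known Cmax.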

[1] = second compound 0.03 µM, first compound 0.00316 µM
[2] = second compound 0.03 µM, first compound 0.01 µM
[3] = second compound 0.03 µM, first compound 0.0316 µM
[4] = second compound 0.03 µM, first compound 0.1 µM
[5] = second compound 0.0949 µM, first compound 0.00316 µM
[6] = second compound 0.0949 µM, first compound 0.01 µM
[7] = second compound 0.0949 µM, first compound 0.0316 µM
[8] = second compound 0.0949 µM, first compound 0.1 µM
[9] = second compound 0.3 µM, first compound 0.00316 µM
[10] = second compound 0.3 µM, first compound 0.01 µM
[11] = second compound 0.3 µM, first compound 0.0316 µM
[12] = second compound 0.3 µM, first compound 0.1 µM
[13] = second compound 0.949 µM, first compound 0.00316 µM
[14] = second compound 0.949 µM, first compound 0.01 µM
[15] = second compound 0.949 µM, first compound 0.0316 µM
[16] = second compound 0.949 µM, first compound 0.1 µM
[17] = second compound 3 µM, first compound 0.00316 µM
[18] = second compound 3 µM, first compound 0.01 µM
[19] = second compound 3 µM, first compound 0.0316 µM
[20] = second compound 3 µM, first compound 0.1 µM

COc1c(OCCCN2CCOCC2)ccc2c3n(c(=NC(=O)c4cnc(N)nc4)nc12)CCN3 + CCN1C(C(=O)NC23CCC(C(=O)O)(CC2)CC3)C(c2cccc(Cl)c2F)C2(C(=O)Nc3cc(Cl)ccc32)C12CCCCC2
IC50 (second compound 0.03 µM): 26.9 nM | IC50 (second compound 0.0949 µM): 3.62 nM | IC50 (second compound 0.3 µM): < 3.16 nM | IC50 (second compound 0.949 µM): < 3.16 nM | IC50 (second compound 3 µM): < 3.16 nM | viability, T/C [1]: 83.3% | viability, T/C [2]: 70.4% | viability, T/C [3]: 42.1% | viability, T/C [4]: 32.5% | viability, T/C (second compound 0.03 µM, first compound 0.316 µM): 21% | viability, T/C (second compound 0.03 µM, first compound 1 µM): 8.92% | viability, T/C [5]: 50.1% | viability, T/C [6]: 44.8% | viability, T/C [7]: 27.9% | viability, T/C [8]: 18.8% | viability, T/C (second compound 0.0949 µM, first compound 0.316 µM): 11.1% | viability, T/C (second compound 0.0949 µM, first compound 1 µM): 5.81% | viability, T/C [9]: 27.8% | viability, T/C [10]: 18.8% | viability, T/C [11]: 13.5% | viability, T/C [12]: 9.78% | viability, T/C (second compound 0.3 µM, first compound 0.316 µM): 5.2% | viability, T/C (second compound 0.3 µM, first compound 1 µM): 1.51% | viability, T/C [13]: 5.84% | viability, T/C [14]: 4.85% | viability, T/C [15]: 3.58% | viability, T/C [16]: 2.14% | viability, T/C (second compound 0.949 µM, first compound 0.316 µM): 1.08% | viability, T/C (second compound 0.949 µM, first compound 1 µM): 0.52% | viability, T/C [17]: 1.52% | viability, T/C [18]: 1.05% | viability, T/C [19]: 0.78% | viability, T/C [20]: 0.45% | viability, T/C (second compound 3 µM, first compound 0.316 µM): 0.29% | viability, T/C (second compound 3 µM, first compound 1 µM): 0.25%

NC(=O)C(=Cn1cnc(-c2cc(C(F)(F)F)cc(C(F)(F)F)c2)n1)c1cncnc1 + CCN1C(C(=O)NC23CCC(C(=O)O)(CC2)CC3)C(c2cccc(Cl)c2F)C2(C(=O)Nc3cc(Cl)ccc32)C12CCCCC2
IC50 (second compound 0.03 µM): 10.5 nM | IC50 (second compound 0.0949 µM): 3.06 nM | IC50 (second compound 0.3 µM): < 0.949 nM | IC50 (second compound 0.949 µM): < 0.949 nM | IC50 (second compound 3 µM): < 0.949 nM | viability, T/C (second compound 0.03 µM, first compound 0.000949 µM): 97.5% | viability, T/C (second compound 0.03 µM, first compound 0.003 µM): 76% | viability, T/C (second compound 0.03 µM, first compound 0.00949 µM): 51.1% | viability, T/C (second compound 0.03 µM, first compound 0.03 µM): 31.9% | viability, T/C (second compound 0.03 µM, first compound 0.0949 µM): 7.28% | viability, T/C (second compound 0.03 µM, first compound 0.3 µM): 0.44% | viability, T/C (second compound 0.0949 µM, first compound 0.000949 µM): 63.5% | viability, T/C (second compound 0.0949 µM, first compound 0.003 µM): 52.7% | viability, T/C (second compound 0.0949 µM, first compound 0.00949 µM): 26.6% | viability, T/C (second compound 0.0949 µM, first compound 0.03 µM): 15.9% | viability, T/C (second compound 0.0949 µM, first compound 0.0949 µM): 2.85% | viability, T/C (second compound 0.0949 µM, first compound 0.3 µM): 0.23% | viability, T/C (second compound 0.3 µM, first compound 0.000949 µM): 21.4% | viability, T/C (second compound 0.3 µM, first compound 0.003 µM): 18% | viability, T/C (second compound 0.3 µM, first compound 0.00949 µM): 11.6% | viability, T/C (second compound 0.3 µM, first compound 0.03 µM): 3.8% | viability, T/C (second compound 0.3 µM, first compound 0.0949 µM): 0.31% | viability, T/C (second compound 0.3 µM, first compound 0.3 µM): 0.12% | viability, T/C (second compound 0.949 µM, first compound 0.000949 µM): 7.25% | viability, T/C (second compound 0.949 µM, first compound 0.003 µM): 5.2% | viability, T/C (second compound 0.949 µM, first compound 0.00949 µM): 2.01% | viability, T/C (second compound 0.949 µM, first compound 0.03 µM): 0.49% | viability, T/C (second compound 0.949 µM, first compound 0.0949 µM): 0.03% | viability, T/C (second compound 0.949 µM, first compound 0.3 µM): 0.14% | viability, T/C (second compound 3 µM, first compound 0.000949 µM): 2.04% | viability, T/C (second compound 3 µM, first compound 0.003 µM): 1.1% | viability, T/C (second compound 3 µM, first compound 0.00949 µM): 0.3% | viability, T/C (second compound 3 µM, first compound 0.03 µM): 0.2% | viability, T/C (second compound 3 µM, first compound 0.0949 µM): 0.16% | viability, T/C (second compound 3 µM, first compound 0.3 µM): 0.26%

NC1CCC(NC2CC2c2ccccc2)CC1 (stereo not given) + CCN1C(C(=O)NC23CCC(C(=O)O)(CC2)CC3)C(c2cccc(Cl)c2F)C2(C(=O)Nc3cc(Cl)ccc32)C12CCCCC2
IC50 (second compound 0.03 µM): > 100 nM | IC50 (second compound 0.0949 µM): 2.07 nM | IC50 (second compound 0.3 µM): < 0.316 nM | IC50 (second compound 0.949 µM): < 0.316 nM | IC50 (second compound 3 µM): < 0.316 nM | viability, T/C (second compound 0.03 µM, first compound 0.000316 µM): 61.3% | viability, T/C (second compound 0.03 µM, first compound 0.001 µM): 64% | viability, T/C [1]: 58.6% | viability, T/C [2]: 59.8% | viability, T/C [3]: 55.8% | viability, T/C [4]: 57% | viability, T/C (second compound 0.0949 µM, first compound 0.000316 µM): 51.2% | viability, T/C (second compound 0.0949 µM, first compound 0.001 µM): 51.1% | viability, T/C [5]: 49.1% | viability, T/C [6]: 47.7% | viability, T/C [7]: 51.1% | viability, T/C [8]: 44.3% | viability, T/C (second compound 0.3 µM, first compound 0.000316 µM): 27.9% | viability, T/C (second compound 0.3 µM, first compound 0.001 µM): 24.9% | viability, T/C [9]: 26.9% | viability, T/C [10]: 23.3% | viability, T/C [11]: 25.6% | viability, T/C [12]: 27% | viability, T/C (second compound 0.949 µM, first compound 0.000316 µM): 8.22% | viability, T/C (second compound 0.949 µM, first compound 0.001 µM): 6.71% | viability, T/C [13]: 6.88% | viability, T/C [14]: 6.14% | viability, T/C [15]: 7.47% | viability, T/C [16]: 6.92% | viability, T/C (second compound 3 µM, first compound 0.000316 µM): 1.71% | viability, T/C (second compound 3 µM, first compound 0.001 µM): 1.81% | viability, T/C [17]: 1.94% | viability, T/C [18]: 1.61% | viability, T/C [19]: 1.43% | viability, T/C [20]: 2.12%
